# Experimental data as given in PMC9917560, “Design, Synthesis and Antimicrobial Evaluation of New N-(1-Hydroxy-1,3-dihydrobenzo[c][1,2]oxaborol-6-yl)(hetero)aryl-2-carboxamides as Potential Inhibitors of Mycobacterial Leucyl-tRNA Synthetase” (International Journal of Molecular Sciences, 2023).
# Read-outs that look alike come from different tables or passages of the source.
# Key:
# [1] = tested on: Mycolicibacterium smegmatis DSM 43,465 (ATCC 607); assay: Antimycobacterial microdilution (resazurin) vs M. smegmatis; assay type: cell-based; conditions: Middlebrook 7H9, resazurin, read-out: MIC M. smeg.
# [2] = tested on: Mycolicibacterium aurum DSM 43,999 (ATCC 23366); assay: Antimycobacterial microdilution (resazurin) vs M. aurum; assay type: cell-based; conditions: Middlebrook 7H9, resazurin, read-out: MIC M. aurum
# [3] = tested on: Mycobacterium kansasii DSM 44,162 (ATCC 12478); assay: Antimycobacterial microdilution (resazurin) vs M. kansasii; assay type: cell-based; conditions: Middlebrook 7H9, resazurin, read-out: MIC M. kansasii
# [4] = tested on: Mycobacterium tuberculosis H37Ra ITM-M006710 (ATCC 9431); assay: Antimycobacterial microdilution (resazurin) vs Mtb H37Ra; assay type: cell-based; conditions: Middlebrook 7H9, resazurin, recalculated from µg/mL, read-out: MIC Mtb H37Ra
# [5] = tested on: Mycobacterium tuberculosis H37Rv CNCTC My 331/88 (ATCC 27294); assay: Microplate Alamar Blue assay vs Mtb H37Rv; assay type: cell-based; conditions: Mycobacterium tuberculosis, pH 6.6, MABA, Middlebrook 7H9 pH 6.6, recalculated from µg/mL; read-out: MIC Mtb H37Rv
# [6] = tested on: Mycobacterium avium DSM 44,156 (ATCC 25291); assay: Antimycobacterial microdilution (resazurin) vs M. avium; assay type: cell-based; conditions: Mycobacterium avium, Middlebrook 7H9, resazurin; read-out: MIC M. avium
# [7] = tested on: Acinetobacter baumannii DSM 30007 (ATCC 19606); assay: Antibacterial microdilution broth (EUCAST); assay type: cell-based; conditions: read-out: MIC Acinetobacter baumannii
# [8] = tested on: Staphylococcus epidermidis CCM 4418 (ATCC 12228); assay: Antibacterial microdilution broth (EUCAST); assay type: cell-based; conditions: read-out: MIC Staphylococcus epidermidis
# [9] = tested on: HepG2 cell line; assay: Cytotoxicity screening, CellTiter 96 assay; conditions: Homo sapiens, HepG2, 24 h, read-out: IC50 HepG2
# [10] = tested on: Aspergillus fumigatus ATCC 204305; assay: Antifungal microdilution broth (EUCAST); assay type: cell-based; conditions: Aspergillus fumigatus, ATCC204305, read-out: MIC Aspergillus fumigatus
# [11] = tested on: methicillin-resistant Staphylococcus aureus subsp. aureus (MRSA) CCM 4750 (ATCC 43300); assay: microbe, parasite or virus in culture; assay type: cell-based; conditions: read-out: MIC Methicillin-resistant Staphylococcus aureus subsp. aureus
# [12] = tested on: Candida krusei CCM 8271 (ATCC 6258); assay: Antifungal microdilution broth (EUCAST); assay type: cell-based; conditions: Pichia kudriavzevii, read-out: MIC Candida krusei
# [13] = tested on: Candida tropicalis CCM 8264 (ATCC 750); assay: Antifungal microdilution broth (EUCAST); assay type: cell-based; conditions: read-out: MIC Candida tropicalis
# [14] = tested on: Aspergillus flavus CCM 8363; assay: Antifungal microdilution broth (EUCAST); assay type: cell-based; conditions: Aspergillus flavus, CCM8363, read-out: MIC Aspergillus flavus
# [15] = tested on: Staphylococcus aureus subsp. aureus CCM 4223 (ATCC 29213); assay: Antibacterial microdilution broth (EUCAST); assay type: cell-based; conditions: read-out: MIC Staphylococcus aureus subsp. aureus
# [16] = tested on: Klebsiella pneumoniae CCM 4415 (ATCC 10031); assay: Antibacterial microdilution broth (EUCAST); assay type: cell-based; conditions: Klebsiella pneumoniae, read-out: MIC Klebsiella pneumoniae
# [17] = tested on: Candida albicans CCM 8320 (ATCC 24433); assay: Antifungal microdilution broth (EUCAST); assay type: cell-based; conditions: Candida albicans, read-out: MIC Candida albicans
# [18] = tested on: Candida parapsilosis CCM 8260 (ATCC 22019); assay: Antifungal microdilution broth (EUCAST); assay type: cell-based; conditions: Lodderomyces parapsilosis, read-out: MIC Candida parapsilosis
# [19] = tested on: Pseudomonas aeruginosa CCM 3955 (ATCC 27853); assay: Antibacterial microdilution broth (EUCAST); assay type: cell-based; conditions: read-out: MIC Pseudomonas aeruginosa
# [20] = tested on: Lichtheimia corymbifera CCM 8077; assay: Antifungal microdilution broth (EUCAST); assay type: cell-based; conditions: Lichtheimia corymbifera, CCM8077, read-out: MIC Lichtheimia corymbifera
# [21] = tested on: Enterococcus faecalis CCM 4224 (ATCC 29212); assay: Antibacterial microdilution broth (EUCAST); assay type: cell-based; conditions: read-out: MIC Enterococcus faecalis
# [22] = tested on: Trichophyton interdigitale CCM 8377 (ATCC 9533); assay: Antifungal microdilution broth (EUCAST); assay type: cell-based; conditions: Trichophyton interdigitale, read-out: MIC Trichophyton interdigitale
# [23] = tested on: Escherichia coli CCM 3954 (ATCC 25922); assay: Antibacterial microdilution broth (EUCAST); assay type: cell-based; conditions: Escherichia coli, read-out: MIC Escherichia coli
compound,measurement,setting,value
"O=C(O)c1cn(C2CC2)c2cc(N3CCNCC3)c(F)cc2c1=O [CIP, ciprofloxacin, reference compound]",MIC,[1],0.19 µM
same,MIC,[2],0.05 µM
same,MIC,[3],0.75 µM
same,MIC,[4],1.51 µM
same,MIC,[5],0.6 µM
same,MIC,[6],1.51 µM
"O=C(Nc1ccc2c(c1)B(O)OC2)c1cnccn1 [Compound 1, N-(1-hydroxy-1,3-dihydrobenzo[c][1,2]oxaborol-6-yl)pyrazine-2-carboxamide]",melting point,,261.3 to 262.3 °C
same,MIC,[7]; 24h incubation,> 500 µM
same,MIC,[7]; 48h incubation,> 500 µM
same,MIC,[1],30.6 µM
same,MIC,[2],15.3 µM
same,MIC,[8]; 24h incubation,500 µM
same,MIC,[8]; 48h incubation,500 µM
same,IC50,[9],> 1000 µM
same,MIC,[10]; 24h incubation,> 500 µM
same,MIC,[10]; 48h incubation,> 500 µM
same,MIC,[11]; 24 h,500 µM
same,MIC,[11]; 48 h,500 µM
same,MIC,[3],30.6 µM
same,MIC,[12]; 24h incubation,> 500 µM
same,MIC,[12]; 48h incubation,> 500 µM
same,MIC,[4],123 µM
same,MIC,[13]; 24h incubation,> 500 µM
same,MIC,[13]; 48h incubation,> 500 µM
same,MIC,[14]; 24h incubation,> 500 µM
same,MIC,[14]; 48h incubation,> 500 µM
same,MIC,[15]; 24h incubation,250 µM
same,MIC,[15]; 48h incubation,250 µM
same,MIC,[16]; 24h incubation,> 500 µM
same,MIC,[16]; 48h incubation,> 500 µM
same,MIC,[17]; 24h incubation,> 500 µM
same,MIC,[17]; 48h incubation,> 500 µM
same,MIC,[18]; 24h incubation,> 500 µM
same,MIC,[18]; 48h incubation,> 500 µM
same,MIC,[19]; 24h incubation,> 500 µM
same,MIC,[19]; 48h incubation,> 500 µM
same,MIC,[20]; 24h incubation,> 500 µM
same,MIC,[20]; 48h incubation,> 500 µM
same,MIC,[5],49 µM
same,MIC,[21]; 24h incubation,> 500 µM
same,MIC,[21]; 48h incubation,> 500 µM
same,MIC,[22]; 72h incubation,> 500 µM
same,MIC,[22]; 120h incubation,> 500 µM
same,MIC,[23]; 24h incubation,> 500 µM
same,MIC,[23]; 48h incubation,> 500 µM
same,MIC,[6],123 µM
